{"source": "paper PMC4635624", "about": "“In vitro and in vivo single-agent efficacy of checkpoint kinase inhibition in acute lymphoblastic leukemia” (Journal of Hematology & Oncology, 2015)", "key": {"[1]": {"system": "normal bone marrow mononuclear cells", "assay": "Viability of primary cultures of normal cells", "format": "cell-based, human", "details": "24 h of exposure at 100, 500, and 1000 nM", "method": "The efficacy of PF-00477736 was confirmed in primary blast cells from 14 newly diagnosed cases including ten BCR-ABL1-positive (71 %) cases and four BCR-ABL1-negative ALL cases (29 %). Leukemic cells were incubated with increasing concentrations of drug (0.1, 0.5, and 1 μM) for 24 h.\nNormal bone marrow progenitors were harvested from bone marrow aspirations performed in lymphoma patients undergoing initial staging procedures, which then resulted negative for lymphoma infiltration. Normal peripheral blood progenitors were harvested from healthy donors.\nIn order to assess the cell viability after treatment with PF-00477736 (Pfizer), ALL cell lines were seeded in 96-well plates at 50,000 cell/100 μl/well with increasing concentrations of drug (0.005–2 μM) for 24 and 48 h and incubated at 37 °C. Cell viability was assessed by adding WST-1 reagent (Roche Applied Science, Basel, Switzerland) to the culture medium at 1:10 dilution. Cells were incubated at 37 °C, and the optical density was measured by microplate ELISA reader at λ = 450 after 3 h. […] In ex-vivo primary leukemia cells, the effects on cell viability were assessed by counting viable and non-viable cell numbers by the trypan blue dye exclusion method. […] Cellular viability was calculated as a percentage of the viable cells compared to the untreated controls (DMSO 0.1 %)."}, "[2]": {"system": "B/T-ALL cell lines (BV-173, SUP-B15, REH, NALM-6, NALM-19, MOLT-4, RPMI-8402, CCRF-CEM)", "assay": "Gene expression profiling (Affymetrix GeneChip Human Gene 1.0 ST)", "format": "cell-based", "method": "In order to identify gene expression changes specifically correlated with Chk1 inhibition and to better elucidate the mechanism of action of Chk1 inhibitor, gene expression profiling (GEP) analysis was performed by microarray on treated B/T-ALL cell lines (BV-173, SUP-B15, REH, NALM-6, NALM-19, MOLT-4, RPMI-8402, and CCRF-CEM) and on their untreated counterparts (DMSO 0.1 %) after 24 h of drug exposure. […] To identify peculiar critical pathways affected by Chk1 inhibition, the differentially expressed genes were analyzed in terms of biological function using the MetaCore pathway mapping software (GeneGo Inc.) which categorizes genes in pathway maps, Gene Ontology (GO) cellular processes, and cellular and molecular process networks. Consistent with a Chk1’s mechanism of action, the three top scored maps (map with the lowest p value) were “cell cycle: estrogen receptor 1 (ESR1) regulation of G1/S transition” including c-Jun/c-Fos, cyclin A, CARM1, Skp2/TrCP/FBXW, SKP2, c-Fos, CDK4, NCOA3, c-Jun, and CDK2 genes (Additional file 1: Figure S5); “apoptosis and survival: granzyme A signaling” including PHAP1, Ku70/80, Ku80, Ku70, histone H3, NDPK A, SET, histone H2B, and histone H1 genes (Additional file 1: Figure S6); and “DNA damage: ATM/ATR regulation of G1/S checkpoint” including PCNA, growth arrest and DNA damage 45 alpha (GADD45a), Chk2, cyclin A, NF-kB, cyclin-dependent kinase 4 (CDK4), FANCD2, Claspin, and CDK2 genes (Additional file 1: Figure S7). GO cellular processes highlighted 617 genes involved in cellular metabolic process (Additional file 3). Finally, the three top scored process networks impaired by the treatment with Chk1 inhibitor were as follows: the DNA damage checkpoint, the S phase of cell cycle, and the apoptosis, confirming the specificity of treatment on its target pathways (Additional file 4). […] Due to its implication in the regulation of the cell cycle and apoptosis, Western blot analysis against c-Jun was performed to better comprehend its biological role in response to PF-00477736. c-Jun is a component of the transcription factor activating protein-1 (AP-1) which is involved in cell cycle progression through the G1 phase by the regulation of the cyclin D1 [28]. […] The data found in the gene expression profile analysis were validated using qPCR.\nGene expression profiling on treated and untreated cells (DMSO 0.1 %) after 24 h of exposure to PF-0077736 was performed using Affymetrix GeneChip Human Gene 1.0 ST platform (Affymetrix Inc. Santa Clara, CA, USA) and following manufacturers’ instructions. Raw data were normalized by using the RMA algorithm and filtered. Genes differentially expressed were selected by analysis of variance (ANOVA) (p value threshold =0.05) using the Partek Genomics Suite software (Partek Incorporated Saint Louis, MO, USA; http://www.partek.com)."}}, "note": "Values joined by “and” are separate entries in the source; they are usually repeats but may differ in a detail not shown here. Identical values can stand only once."}
{"smiles": "Cn1cc(-c2[nH]c3cc(NC(=O)[C@H](N)C4CCCCC4)cc4c3c2C=NNC4=O)cn1", "note": "[PF-00477736]", "values": [{"measurement": "cell viability", "setting": "[1]", "value": "did not reduce viability"}, {"measurement": "Fold-Change (PF-00477736 vs. DMSO), SESN2", "setting": "[2]; transcript ID 7899436, 24 h, up-regulated", "value": 2.221}, {"measurement": "Fold-Change (PF-00477736 vs. DMSO), RNU11", "setting": "[2]; transcript ID 7899502, 24 h, up-regulated", "value": 2.283}, {"measurement": "Fold-Change (PF-00477736 vs. DMSO), GADD45A", "setting": "[2]; transcript ID 7902227, 24 h, up-regulated", "value": 2.163}, {"measurement": "Fold-Change (PF-00477736 vs. DMSO), HIST2H4A", "setting": "[2]; transcript ID 7905067, 24 h, up-regulated", "value": 3.531}, {"measurement": "Fold-Change (PF-00477736 vs. DMSO), BTG2", "setting": "[2]; transcript ID 7908917, 24 h, up-regulated", "value": 2.0536}, {"measurement": "Fold-Change (PF-00477736 vs. DMSO), ATF3", "setting": "[2]; transcript ID 7909610, 24 h, up-regulated", "value": 2.764}, {"measurement": "Fold-Change (PF-00477736 vs. DMSO), JUN", "setting": "[2]; transcript ID 7916609, 24 h, up-regulated", "value": 5.3469}, {"measurement": "Fold-Change (PF-00477736 vs. DMSO), HIST2H2BF", "setting": "[2]; transcript ID 7919584, 24 h, up-regulated", "value": 2.188}, {"measurement": "Fold-Change (PF-00477736 vs. DMSO), HIST2H2BF", "setting": "[2]; transcript ID 7919606, 24 h, up-regulated", "value": 2.022}, {"measurement": "Fold-Change (PF-00477736 vs. DMSO), HIST2H4A", "setting": "[2]; transcript ID 7919627, 24 h, up-regulated", "value": 3.531}, {"measurement": "Fold-Change (PF-00477736 vs. DMSO), RGS16", "setting": "[2]; transcript ID 7922717, 24 h, up-regulated", "value": 2.4}, {"measurement": "Fold-Change (PF-00477736 vs. DMSO), NFKB2", "setting": "[2]; transcript ID 7930074, 24 h, up-regulated", "value": 2.262}, {"measurement": "Fold-Change (PF-00477736 vs. DMSO), KLF6", "setting": "[2]; transcript ID 7931810, 24 h, up-regulated", "value": "2.17 and 2.174"}, {"measurement": "Fold-Change (PF-00477736 vs. DMSO), BNIP3", "setting": "[2]; transcript ID 7937079, 24 h, down-regulated", "value": -2.2734}, {"measurement": "Fold-Change (PF-00477736 vs. DMSO), BEST1", "setting": "[2]; transcript ID 7940582, 24 h, up-regulated", "value": 2.3629}, {"measurement": "Fold-Change (PF-00477736 vs. DMSO), TCP11L2", "setting": "[2]; transcript ID 7958262, 24 h, up-regulated", "value": 2.209}, {"measurement": "Fold-Change (PF-00477736 vs. DMSO), CD69", "setting": "[2]; transcript ID 7961075, 24 h, up-regulated", "value": 3.17}, {"measurement": "Fold-Change (PF-00477736 vs. DMSO), RND1", "setting": "[2]; transcript ID 7962884, 24 h, up-regulated", "value": 2.096}, {"measurement": "Fold-Change (PF-00477736 vs. DMSO), DDIT3", "setting": "[2]; transcript ID 7964460, 24 h, up-regulated", "value": "3.32 and 3.325"}, {"measurement": "Fold-Change (PF-00477736 vs. DMSO), FOS", "setting": "[2]; transcript ID 7975779, 24 h, up-regulated", "value": "2.40 and 2.404"}, {"measurement": "Fold-Change (PF-00477736 vs. DMSO), CHAC1", "setting": "[2]; transcript ID 7982868, 24 h, up-regulated", "value": 2.1}, {"measurement": "Fold-Change (PF-00477736 vs. DMSO), MAP1LC3B", "setting": "[2]; transcript ID 7997740, 24 h, up-regulated", "value": 2.05}, {"measurement": "Fold-Change (PF-00477736 vs. DMSO), ALDOC", "setting": "[2]; transcript ID 8013660, 24 h, down-regulated", "value": -2.184}, {"measurement": "Fold-Change (PF-00477736 vs. DMSO), ROCK1P1", "setting": "[2]; transcript ID 8019804, 24 h, up-regulated", "value": 2.468}, {"measurement": "Fold-Change (PF-00477736 vs. DMSO), PPP1R15A", "setting": "[2]; transcript ID 8030128, 24 h, up-regulated", "value": 2.884}, {"measurement": "Fold-Change (PF-00477736 vs. DMSO), TRIB3", "setting": "[2]; transcript ID 8060344, 24 h, up-regulated", "value": 2.719}, {"measurement": "Fold-Change (PF-00477736 vs. DMSO), CEBPB", "setting": "[2]; transcript ID 8063386, 24 h, up-regulated", "value": 2.112}, {"measurement": "Fold-Change (PF-00477736 vs. DMSO), NFKBIZ", "setting": "[2]; transcript ID 8081386, 24 h, up-regulated", "value": 2.098}, {"measurement": "Fold-Change (PF-00477736 vs. DMSO), IL8", "setting": "[2]; transcript ID 8095680, 24 h, up-regulated", "value": 2.299}, {"measurement": "Fold-Change (PF-00477736 vs. DMSO), EGR1", "setting": "[2]; transcript ID 8108370, 24 h, up-regulated", "value": 2.571}, {"measurement": "Fold-Change (PF-00477736 vs. DMSO), ARRDC3", "setting": "[2]; transcript ID 8113073, 24 h, up-regulated", "value": 2.177}, {"measurement": "Fold-Change (PF-00477736 vs. DMSO), HIST1H2BJ", "setting": "[2]; transcript ID 8124484, 24 h, up-regulated", "value": 2.658}, {"measurement": "Fold-Change (PF-00477736 vs. DMSO), HIST1H2AJ", "setting": "[2]; transcript ID 8124518, 24 h, up-regulated", "value": 5.146}, {"measurement": "Fold-Change (PF-00477736 vs. DMSO), HIST1H2AM", "setting": "[2]; transcript ID 8124540, 24 h, up-regulated", "value": 2.131}, {"measurement": "Fold-Change (PF-00477736 vs. DMSO), IER3", "setting": "[2]; transcript ID 8124848, 24 h, up-regulated", "value": 2.508}, {"measurement": "Fold-Change (PF-00477736 vs. DMSO), IER3", "setting": "[2]; transcript ID 8178435, 24 h, up-regulated", "value": 2.417}, {"measurement": "Fold-Change (PF-00477736 vs. DMSO), IER3", "setting": "[2]; transcript ID 8179704, 24 h, up-regulated", "value": 2.508}, {"measurement": "upregulated genes", "setting": "[2]; treated vs DMSO 0.1 %, 24 h, 44 % of 941", "value": 413, "unit": "genes"}, {"measurement": "down-modulated genes", "setting": "[2]; treated vs DMSO 0.1 %, 24 h, 56 % of 941", "value": 528, "unit": "genes"}, {"measurement": "differentially expressed genes (p < 0.05)", "setting": "[2]; treated vs DMSO 0.1 %, 24 h of drug exposure", "value": 941, "unit": "genes"}]}
